Measured values taken from article PMC4161160 (Journal of Medicinal Chemistry, 2014).
“And” between values parts separate entries of the source, which are not always exact repeats. Equal values may be shown once. Read-outs that look alike come from different tables or passages of the source.

Columns and labels:
[1] = Microsomal stability assay, rat liver microsomes; type: in vitro ADME; conditions: 0.5 μM compound, 1 mg/mL microsomal protein
Bovine brain tubulin = Bovine brain tubulin (Bos taurus, UniProt P81947+Q6B856); test: In vitro tubulin polymerization assay; type: biochemical; conditions: for Inhibition of tubulin polymerization: 20 min incubation, compared to vehicle
[2] = Metabolite identification in human liver microsomes; type: in vitro ADME; conditions: 50 μM compound, 1 mg/mL microsomal protein, high resolution MS
[3] = Microsomal stability assay, human liver microsomes; type: in vitro ADME; conditions: for T1/2 in human liver microsomes: 0.5 μM compound, 1 mg/mL microsomal protein; for Fold improvement of metabolic stability in human microsomes: compared to parent SMART compound
[4] = Microsomal stability assay, mouse liver microsomes; type: in vitro ADME; conditions: 0.5 μM compound, 1 mg/mL microsomal protein
[5] = Microsomal stability, over the tested liver microsome species; type: in vitro ADME; conditions: mouse, rat
A375 = test: Antiproliferative SRB assay, A375 melanoma cells; type: cell-based; conditions: compared to SMART compound 10 and 4
LNCaP = test: Antiproliferative SRB assay, LNCaP prostate cancer cells; type: cell-based, human; conditions: compared to SMART compound 10 and 4
[6] = cited from earlier work
[7] = cited from earlier work; remark: listed apart in the source
prostate cancer cells = test: Antiproliferative activity, prostate cancer cells overall; type: cell-based, human; conditions: compared to parent PAT compound

Sequence of Bovine brain tubulin (Q6B856 whole entry): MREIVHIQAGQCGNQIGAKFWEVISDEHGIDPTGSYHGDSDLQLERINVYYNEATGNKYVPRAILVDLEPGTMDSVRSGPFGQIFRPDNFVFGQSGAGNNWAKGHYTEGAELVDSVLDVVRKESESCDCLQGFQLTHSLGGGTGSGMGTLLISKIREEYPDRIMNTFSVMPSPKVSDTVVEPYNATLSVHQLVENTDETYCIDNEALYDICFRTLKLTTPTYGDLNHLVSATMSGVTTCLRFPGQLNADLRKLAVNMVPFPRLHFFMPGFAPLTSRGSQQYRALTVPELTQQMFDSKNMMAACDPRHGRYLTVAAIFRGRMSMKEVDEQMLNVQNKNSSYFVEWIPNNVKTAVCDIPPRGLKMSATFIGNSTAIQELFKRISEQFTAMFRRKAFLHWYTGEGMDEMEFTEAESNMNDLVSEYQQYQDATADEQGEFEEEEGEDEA
Sequence of Bovine brain tubulin (P81947 whole entry): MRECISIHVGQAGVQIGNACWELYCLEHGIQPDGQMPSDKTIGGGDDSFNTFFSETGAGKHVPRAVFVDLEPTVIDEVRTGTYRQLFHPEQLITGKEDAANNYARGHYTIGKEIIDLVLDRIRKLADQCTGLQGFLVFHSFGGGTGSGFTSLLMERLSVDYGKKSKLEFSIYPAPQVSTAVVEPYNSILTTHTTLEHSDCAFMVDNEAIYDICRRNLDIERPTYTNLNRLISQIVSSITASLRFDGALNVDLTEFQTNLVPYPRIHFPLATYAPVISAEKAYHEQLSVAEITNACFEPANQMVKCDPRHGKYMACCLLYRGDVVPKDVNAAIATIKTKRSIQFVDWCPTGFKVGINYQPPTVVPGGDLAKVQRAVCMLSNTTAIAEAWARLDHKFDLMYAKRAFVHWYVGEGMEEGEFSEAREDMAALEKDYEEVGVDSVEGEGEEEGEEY

Compound: 2-(1H-Indol-3-yl)-4-(3,4,5-trimethoxyphenyl)-1H-benzo[d]imidazole [compound 4]
- T1/2 in rat liver microsomes [1]: 1.2 ± 0.0767 h
- Inhibition of tubulin polymerization (Bovine brain tubulin; 5 μM): 30%
- Inhibition of tubulin polymerization (Bovine brain tubulin; 10 μM): 60%
- Major metabolites / metabolic pathway [2]: o-demethylation (M9) and monohydroxylation (M10) are the major products
- T1/2 in human liver microsomes [3]: 0.85 h and 0.845 ± 0.02 h
- Fold improvement of metabolic stability in human microsomes [3]: 2–3 fold
- T1/2 in mouse liver microsomes [4]: 0.892 ± 0.04 h

Compound: COCOc1c(OC)cc(C(=O)c2csc(-c3ccccc3)n2)cc1OC [compound 15, (3,5-Dimethoxy-4-(methoxymethoxy)phenyl)(2-phenylthiazol-4-yl)methanone]
- half-life at 0.5 μM ([5]; human, liver microsomes, pH 7.4): < 0.167 h
- Major metabolites / metabolic pathway [2]: removal of the MOM group to form M1 is the major metabolic pathway

Compound: (4-(2-Aminoethyl)-3,5-dimethoxyphenyl)(2-phenylthiazol-4-yl)methanone [compound 18]
- T1/2 in rat liver microsomes [1]: 3.75 ± 0.21 h
- T1/2 in the tested liver microsomes species ([5]; summary over human): 1.83 to 3.75 h
- Major metabolites / metabolic pathway [2]: M6 (dealkylation) and M8 (ketone reduction) are the major metabolites
- T1/2 in human liver microsomes [3]: 1.833 ± 0.0917 h
- T1/2 in mouse liver microsomes [4]: 2.05 ± 0.128 h

Compound: COc1cc(-c2nccc3[nH]c(-c4ccc5[nH]ccc5c4)nc23)cc(OC)c1OC [compound 7, 2-(1H-Indol-5-yl)-4-(3,4,5-trimethoxyphenyl)-1H-imidazo[4,5-c]pyridine]
- inhibition at 5 µM (Bovine brain tubulin; read-out: Inhibition of tubulin polymerization): ~33%
- Major metabolites / metabolic pathway [2]: M14 is the major metabolite
- Fold improvement of IC50 against A375 (A375): at least 5 fold
- Fold improvement of metabolic stability in human microsomes [3]: 2–3 fold
- Fold improvement of IC50 against LNCaP (LNCaP): at least 5 fold

Compound: COc1cc(C(=O)c2csc(Nc3ccccc3)n2)cc(OC)c1OC [PAT]
- Oral bioavailability [6]: 21%
- Oral bioavailability (F) ([6]; reference not given): > 30%

Compound: COc1cc(C(=O)c2csc(-c3ccccc3)n2)cc(OC)c1OC [SMART 10]
- T1/2 in mouse liver microsomes [7]: ≪5 min

Compound: COc1cc(C(=O)c2csc(Nc3ccc4[nH]ccc4c3)n2)cc(OC)c1OC [compound 33, (2-((1H-Indol-5-yl)amino)thiazol-4-yl)(3,4,5-trimethoxyphenyl)methanone]
- Fold change of IC50 on prostate cancer cells (prostate cancer cells): 2–3 fold
